Assay results published in patent US8309554B2 (priority 2008, dated 2012).
Like-named read-outs stand apart in the source and are kept apart here.

Legend:
[1] = tested on: H460; assay: cells; format: cell-based; settings: for IC50: Homo sapiens
[2] = tested on: HT29; assay: cells; format: cell-based; settings: for IC50: Homo sapiens, HT-29, 2 h
[3] = NCI-H460, 2 h, read-out: 2 hr Air H460 IC50
[4] = NCI-H460, 2 h, read-out: 2 hr N2 H460 IC50
[5] = NCI-H460, read-out: 2 h Air H460 monolayer IC50
[6] = NCI-H460, read-out: 2 h N2 H460 monolayer IC50

| SMILES | H460 HCR: Air/N2 [1] | IC50 [1, 3] | IC50 [1, 4] | IC50 [1, 5] | IC50 [1, 6] | other results |
| --- | --- | --- | --- | --- | --- | --- |
| O=[N+]([O-])c1sccc1C(Cc1ccc2c(ccn2CCO)c1)S(=O)(=O)Oc1ccc(N(CCCl)CCCl)cc1 (stereo not shown) [TH-1140] | 114 | 114 µM | 1 µM | – | – | – |
| C[C@H](O)[C@H](C)Oc1ccc(CC(c2ccsc2[N+](=O)[O-])S(=O)(=O)Oc2ccc(N(CCCl)CCCl)cc2)cn1 (stereo partly shown) [TH-1486] | 36 | 36 µM | 1 µM | – | – | – |
| CN(c1cc(F)c(N(CCCl)CCCl)c(F)c1)S(=O)(=O)Cn1ccnc1[N+](=O)[O-] [TH-1135] | – | – | – | 9.2 µM | 3.4 µM | – |
| CN(c1ccc(N(CCCl)CCCl)cc1)S(=O)(=O)C(C)(C)c1ccc([N+](=O)[O-])cc1 [TH-1124] | – | – | – | 289 µM | 243 µM | – |
| O=[N+]([O-])c1sccc1C(Cc1ccc(Cl)nc1)S(=O)(=O)Oc1ccc(N(CCCl)CCCl)cc1 (stereo not shown) [TH-1341] | 43 | 145 µM | 3.4 µM | – | – | – |
| O=[N+]([O-])c1nccn1CS(=O)(=O)Nc1ccc(N(CCCl)CCCl)cc1 [TH-1105] | – | – | – | 7.6 µM | 4.2 µM | – |
| CC(=O)Nc1ncccc1CC(c1ccsc1[N+](=O)[O-])S(=O)(=O)Oc1ccc(N(CCCl)CCCl)cc1 (stereo not shown) [TH-1375] | 93 | 28 µM | 0.3 µM | – | – | HT29 HCR: Air/N2 [2]: 16; IC50 ([2]; read-out: 2 hr Air HT29 IC50): 280 µM; IC50 ([2]; read-out: 2 hr N2 HT29 IC50): 17 µM |
| Cn1c(CS(=O)(=O)Nc2ccc(N(CCCl)CCCl)cc2)cnc1[N+](=O)[O-] [TH-1104] | – | – | – | 7.4 µM | 6.1 µM | – |
| CS(=O)(=O)N(c1ccc(CC(c2ccsc2[N+](=O)[O-])S(=O)(=O)Oc2ccc(N(CCCl)CCCl)cc2)cn1)S(C)(=O)=O (stereo not shown) [TH-1257] | 424.0 | 212 µM | 0.5 µM | – | – | IC50 ([2]; read-out: 2 hr Air HT29 IC50): > 300 µM; IC50 ([2]; read-out: 2 hr N2 HT29 IC50): > 300 µM |
| O=[N+]([O-])c1sccc1C(CNS(=O)(=O)c1ccc(F)cc1)S(=O)(=O)Oc1ccc(N(CCCl)CCCl)cc1 (stereo not shown) [TH-1311] | 143 | 57.3 µM | 0.4 µM | – | – | IC50 ([2]; read-out: 2 hr Air HT29 IC50): > 300 µM; IC50 ([2]; read-out: 2 hr N2 HT29 IC50): > 300 µM |
| O=[N+]([O-])c1sccc1C(Cc1cnc(O)c(Cl)c1)S(=O)(=O)Oc1ccc(N(CCCl)CCCl)cc1 (stereo not shown) [TH-1393] | 89 | 151 µM | 1.7 µM | – | – | IC50 ([2]; read-out: 2 hr Air HT29 IC50): 710 µM; IC50 ([2]; read-out: 2 hr N2 HT29 IC50): 110 µM |
| Cc1cc(C(C)(C)S(=O)(=O)Oc2ccc(N(CCCl)CCCl)c(C)c2)c([N+](=O)[O-])s1 [TH-1132] | – | – | – | 2 µM | 0.3 µM | – |
| Nc1ncccc1CC(c1ccsc1[N+](=O)[O-])S(=O)(=O)Oc1ccc(N(CCCl)CCCl)cc1.O=C(O)C(F)(F)F (stereo not shown) [TH-1374] | 73 | 145 µM | 2 µM | – | – | HT29 HCR: Air/N2 [2]: 23; IC50 ([2]; read-out: 2 hr Air HT29 IC50): 630 µM; IC50 ([2]; read-out: 2 hr N2 HT29 IC50): 28 µM |
| O=[N+]([O-])c1sccc1C(Cc1ccc(N2CCC[C@H]2CO)nc1)S(=O)(=O)Oc1ccc(N(CCCl)CCCl)cc1 (stereo partly shown) [TH-1430] | 500 | 300 µM | 0.6 µM | – | – | – |
| CC(=O)Nc1ccc(CC(c2ccsc2[N+](=O)[O-])S(=O)(=O)Oc2ccc(N(CCCl)CCCl)cc2)cn1 (stereo not shown) [TH-1271] | 236 | 236 µM | 1 µM | – | – | HT29 HCR: Air/N2 [2]: 1.3; IC50 ([2]; read-out: 2 hr Air HT29 IC50): 977 µM; IC50 ([2]; read-out: 2 hr N2 HT29 IC50): 760 µM |
| Cc1cc(OS(=O)(=O)C(C)(C)c2ccc([N+](=O)[O-])cc2)ccc1N(CCBr)CCBr [TH-1116] | – | – | – | 1.1 µM | 0.6 µM | – |
| Cn1c(CS(=O)(=O)Nc2cc(F)c(N(CCCl)CCCl)c(F)c2)cnc1[N+](=O)[O-] [TH-1137] | – | – | – | 20.4 µM | 8.3 µM | – |
| Cn1c(CN(c2ccc(N(CCCl)CCCl)cc2)S(=O)(=O)C(F)(F)F)cnc1[N+](=O)[O-] [TH-1128] | – | – | – | 267 µM | 294 µM | – |
| Nc1ccc(CC(c2ccsc2[N+](=O)[O-])S(=O)(=O)Oc2ccc(N(CCCl)CCCl)cc2)cc1.O=C(O)C(F)(F)F (stereo not shown) [TH-1330, 3-(4-(N,N-bis-(2-Chloroethyl)amino)phenoxysulfonyl-(4-aminophenylmethyl))methyl-2-nitrothiophene] | 253 | 228 µM | 0.9 µM | – | – | HT29 HCR: Air/N2 [2]: 21; IC50 ([2]; read-out: 2 hr Air HT29 IC50): 186 µM; IC50 ([2]; read-out: 2 hr N2 HT29 IC50): 9 µM |
| O=[N+]([O-])c1sccc1C(CCS(=O)(=O)c1ccc(C(F)(F)F)cn1)S(=O)(=O)Oc1ccc(N(CCCl)CCCl)cc1 (stereo not shown) [TH-1369] | 131 | 236 µM | 1.8 µM | – | – | IC50 ([2]; read-out: 2 hr Air HT29 IC50): > 1000 µM; IC50 ([2]; read-out: 2 hr N2 HT29 IC50): > 1000 µM |
| O=[N+]([O-])c1sccc1C(Cc1ccc2nn(CCO)nc2c1)S(=O)(=O)Oc1ccc(N(CCCl)CCCl)cc1 (stereo not shown) [TH-1458] | 60 | 30 µM | 0.5 µM | – | – | – |
| CN(c1ccc(N(CCCl)CCCl)cc1)S(=O)(=O)C(C)(C)c1nc(-c2ccccc2)c([N+](=O)[O-])n1C [TH-1130] | – | – | – | 122 µM | 65 µM | – |
| COCC(=O)Nc1ccc(CC(c2ccsc2[N+](=O)[O-])S(=O)(=O)Oc2ccc(N(CCCl)CCCl)cc2)cn1 (stereo not shown) [TH-1477] | 43 | 13 µM | 0.3 µM | – | – | – |
| Cc1cc(OS(=O)(=O)Cc2nc(C)n(C)c2[N+](=O)[O-])ccc1N(CCCl)CCCl [TH-1112] | – | – | – | 1.4 µM | 1.7 µM | – |
| Cn1c(CN(c2ccc(N(CCCl)CCCl)cc2)S(=O)(=O)CCl)cnc1[N+](=O)[O-] [TH-1119] | – | – | – | > 300 µM | > 300 µM | – |
| Cc1cc(OS(=O)(=O)Cc2ccoc2[N+](=O)[O-])ccc1N(CCCl)CCCl [TH-1117] | – | – | – | 2.3 µM | 1.1 µM | – |

| SMILES | H460 HCR: Air/N2 [1] | IC50 [1, 3] | IC50 [1, 4] | IC50 [1, 5] | IC50 [1, 6] | other results |
| --- | --- | --- | --- | --- | --- | --- |
| CN(c1cc(F)c(N(CCCl)CCCl)c(F)c1)S(=O)(=O)C(C)(C)n1ccnc1[N+](=O)[O-] [TH-1136] | – | – | – | 5.1 µM | 5 µM | – |
| CN(c1cc(F)c(N(CCCl)CCCl)c(F)c1)S(=O)(=O)Cc1cnc([N+](=O)[O-])n1C [TH-1138] | – | – | – | 34.2 µM | 13.5 µM | – |
| CC(C)(C)OC(=O)NCC(=O)Nc1ccc(CC(c2ccsc2[N+](=O)[O-])S(=O)(=O)Oc2ccc(N(CCCl)CCCl)cc2)cn1 (stereo not shown) [TH-1351] | 49 | ~300 µM | 6.1 µM | – | – | – |
| CN(CCO)c1ccc(CC(c2ccsc2[N+](=O)[O-])S(=O)(=O)Oc2ccc(N(CCCl)CCCl)cc2)cn1 (stereo not shown) [TH-1434] | 83 | 50 µM | 0.6 µM | – | – | – |
| CCc1nc([N+](=O)[O-])n(C)c1CS(=O)(=O)N(C)c1ccc(N(CCCl)CCCl)cc1 [TH-1145] | – | – | – | 78.2 µM | 3.8 µM | – |
| Cc1cc(OS(=O)(=O)C(C)(C)n2ccnc2[N+](=O)[O-])ccc1N(CCCl)CCCl [TH-1134] | – | – | – | 0.2 µM | < 0.1 µM | – |
| Cc1cc(OS(=O)(=O)Cn2ccnc2[N+](=O)[O-])ccc1N(CCCl)CCCl [TH-1106] | – | – | – | 0.9 µM | 0.2 µM | – |
| Cc1cc(CS(=O)(=O)Oc2ccc(N(CCCl)CCCl)c(C)c2)c([N+](=O)[O-])s1 [TH-1131] | – | – | – | 1 µM | 0.3 µM | – |
| CN(c1ccc(N(CCCl)CCCl)cc1)S(=O)(=O)Cc1ccc([N+](=O)[O-])cc1 [TH-1123] | – | – | – | > 300 µM | > 300 µM | – |
| Cc1cc(OS(=O)(=O)C(C)(C)c2ccsc2[N+](=O)[O-])ccc1N(CCCl)CCCl [TH-1121] | – | – | – | 1.3 µM | 0.3 µM | – |
| Cc1cc(CS(=O)(=O)N(C)c2ccc(N(CCCl)CCCl)cc2)c([N+](=O)[O-])s1 [TH-1125] | – | – | – | 148 µM | 69 µM | – |
| CN(c1ccc(N(CCCl)CCCl)cc1)S(=O)(=O)Cc1nc(-c2ccccc2)c([N+](=O)[O-])n1C [TH-1129] | – | – | – | 6.9 µM | 3.6 µM | – |
| O=[N+]([O-])c1nccn1CS(=O)(=O)Nc1cc(F)c(N(CCCl)CCCl)c(F)c1 [TH-1133] | – | – | – | 11.3 µM | 5.9 µM | – |
| CC(c1ccc([N+](=O)[O-])cc1)S(=O)(=O)N(C)c1ccc(N(CCCl)CCCl)cc1 (stereo not shown) [TH-1122] | – | – | – | > 300 µM | > 300 µM | – |
| CN(c1ccc(N(CCCl)CCCl)cc1)S(=O)(=O)Cc1cnc([N+](=O)[O-])n1C [TH-1108] | – | – | – | 15 µM | 11 µM | – |
| CN(c1ccc(N(CCCl)CCCl)cc1)S(=O)(=O)Cc1ccsc1[N+](=O)[O-] [TH-1118] | – | – | – | 12.9 µM | 6.7 µM | – |
| O=[N+]([O-])c1sccc1C(Cc1ccc(NS(=O)(=O)C(F)(F)F)nc1)S(=O)(=O)Oc1ccc(N(CCCl)CCCl)cc1 (stereo not shown) [TH-1262] | 150 | 90 µM | 0.6 µM | – | – | – |
| C[C@H](O)C(=O)Nc1ccc(CC(c2ccsc2[N+](=O)[O-])S(=O)(=O)Oc2ccc(N(CCCl)CCCl)cc2)cc1 (stereo partly shown) [TH-1468] | 75 | 30 µM | 0.4 µM | – | – | – |
| Cc1cc(OS(=O)(=O)Cc2ncn(C)c2[N+](=O)[O-])ccc1N(CCCl)CCCl [TH-1111] | – | – | – | 4.7 µM | 2.5 µM | – |
| Cc1cc(OS(=O)(=O)Cc2ncc([N+](=O)[O-])n2C)ccc1N(CCCl)CCCl [TH-1110] | – | – | – | 1.4 µM | 2.1 µM | – |
| Cc1cc(OS(=O)(=O)Cc2ccsc2[N+](=O)[O-])ccc1N(CCCl)CCCl [TH-1103] | – | – | – | 0.7 µM | 0.1 µM | – |
| Cc1cc(OS(=O)(=O)C(C)(C)c2ccc([N+](=O)[O-])cc2)ccc1N(CCCl)CCCl [TH-1115] | – | – | – | 13 µM | 3 µM | – |
| CS(=O)(=O)Nc1ccc(CC(c2ccsc2[N+](=O)[O-])S(=O)(=O)Oc2ccc(N(CCCl)CCCl)cc2)cn1 (stereo not shown) [TH-1272] | 91 | 290 µM | 3.2 µM | – | – | – |
| O=[N+]([O-])c1sccc1C(Cc1ccc(O[C@@H]2CCC[C@H]2O)nc1)S(=O)(=O)Oc1ccc(N(CCCl)CCCl)cc1 (stereo partly shown) [TH-1452] | 55 | 110 µM | 2 µM | – | – | – |
| CN(c1ccc(N(CCBr)CCBr)cc1)S(=O)(=O)Cn1ccnc1[N+](=O)[O-] [TH-1141] | – | – | – | 0.5 µM | 0.1 µM | – |
| Cc1ccc(S(=O)(=O)NCC(c2ccsc2[N+](=O)[O-])S(=O)(=O)Oc2ccc(N(CCCl)CCCl)cc2)cc1 (stereo not shown) [TH-1312] | 31 | 122 µM | 3.9 µM | – | – | – |
